Measured values: ChEMBL document CHEMBL1126512, “Synthesis and antitumor evaluation of water soluble taxol phosphates” (Bioorg Med Chem Lett, 1993)
In brackets after ≈: the same amount, converted by molar mass. Values belong to the compound of their own block, whether it stands above or below them.

Key:
Mus musculus [1] = assay: Antitumor activity against M109 tumor murine lung carcinoma infected mice after ip administration using DMSO an water as vehicle at a dose of 30 mg/kg/inj; type: functional; conditions: route intraperitoneal
Mus musculus [2] = assay: Antitumor activity against M109 tumor murine lung carcinoma infected mice after ip administration using DMSO an saline as vehicle at a dose of 50 mg/kg/inj; type: functional; conditions: route intraperitoneal
Mus musculus [3] = assay: Antitumor activity against M109 tumor murine lung carcinoma infected mice after ip administration using DMSO an water as vehicle at a dose of 25 mg/kg/inj; type: functional; conditions: route intraperitoneal
Mus musculus [4] = assay: Antitumor activity against M109 tumor murine lung carcinoma infected mice after ip administration using DMSO an saline as vehicle at a dose of 30 mg/kg/inj; type: functional; conditions: route intraperitoneal
[5] = Solubility was determined; value ranges from 6-7; type: physicochemical
Mus musculus [6] = assay: Antitumor activity against M109 tumor murine lung carcinoma infected mice after ip administration using DMSO an saline as vehicle at a dose of 25 mg/kg/inj; 1/6 mice cured; type: functional; conditions: route intraperitoneal
Mus musculus [7] = assay: Antitumor activity against M109 tumor murine lung carcinoma infected mice after ip administration using DMSO an water as vehicle at a dose of 25 mg/kg/inj; 1/6 mice cured; type: functional; conditions: route intraperitoneal
[8] = Solubility was determined; type: physicochemical
Mus musculus [9] = assay: Antitumor activity against M109 tumor murine lung carcinoma infected mice after ip administration using DMSO an water as vehicle at a dose of 50 mg/kg/inj; type: functional; conditions: route intraperitoneal
Mus musculus [10] = assay: Antitumor activity against M109 tumor murine lung carcinoma infected mice after ip administration using DMSO an water as vehicle at a dose of 10 mg/kg/inj; type: functional; conditions: route intraperitoneal
Mus musculus [11] = assay: Antitumor activity against M109 tumor murine lung carcinoma infected mice after ip administration using DMSO an saline as vehicle at a dose of 10 mg/kg/inj; type: functional; conditions: route intraperitoneal

Compound: CC(=O)O[C@H]1C(=O)[C@]2(C)[C@@H](OP(=O)([O-])[O-])C[C@H]3OC[C@@]3(OC(C)=O)[C@H]2[C@H](OC(=O)c2ccccc2)[C@]2(O)C[C@H](OC(=O)[C@H](O)[C@@H](NC(=O)c3ccccc3)c3ccccc3)C(C)=C1C2(C)C.[Na+].[Na+]
Max T/C (Mus musculus [1]): 123

Compound: CC(=O)O[C@H]1C(=O)[C@@]2(C)[C@H]([C@H](OC(=O)c3ccccc3)[C@]3(O)C[C@H](OC(=O)[C@H](OP(=O)(OCc4ccccc4)OCc4ccccc4)[C@@H](NC(=O)c4ccccc4)c4ccccc4)C(C)=C1C3(C)C)[C@]1(OC(C)=O)CO[C@@H]1C[C@@H]2O
Max T/C (Mus musculus [2]): 107

Compound: CC(=O)O[C@H]1C(=O)[C@@]2(C)[C@H]([C@H](OC(=O)c3ccccc3)[C@]3(O)C[C@H](OC(=O)[C@H](OP(=O)([O-])[O-])[C@@H](NC(=O)c4ccccc4)c4ccccc4)C(C)=C1C3(C)C)[C@]1(OC(C)=O)CO[C@@H]1C[C@@H]2O.[Na+].[Na+]
Max T/C (Mus musculus [3]): 140

Compound: CC(=O)O[C@H]1C(=O)[C@]2(C)[C@@H](OP(=O)([O-])[O-])C[C@H]3OC[C@@]3(OC(C)=O)[C@H]2[C@H](OC(=O)c2ccccc2)[C@]2(O)C[C@H](OC(=O)[C@H](OP(=O)([O-])[O-])[C@@H](NC(=O)c3ccccc3)c3ccccc3)C(C)=C1C2(C)C.[Na+].[Na+].[Na+].[Na+]
Max T/C (Mus musculus [4]): 103

solubility [5]: 6 µg/mL
Compound: CC(=O)O[C@@]12CO[C@@H]1C[C@H](O)[C@@]1(C)C(=O)[C@H](O)C3=C(C)[C@@H](OC(=O)[C@H](O)[C@@H](NC(=O)OC(C)(C)C)c4ccccc4)C[C@@](O)([C@@H](OC(=O)c4ccccc4)[C@H]21)C3(C)C.O.O.O [DOCETAXEL]

solubility [8]: 0.25 µg/mL (≈ 0.293 µM)
Compound: CC(=O)O[C@H]1C(=O)[C@@]2(C)[C@H]([C@H](OC(=O)c3ccccc3)[C@]3(O)C[C@H](OC(=O)[C@H](O)[C@@H](NC(=O)c4ccccc4)c4ccccc4)C(C)=C1C3(C)C)[C@]1(OC(C)=O)CO[C@@H]1C[C@@H]2O [PACLITAXEL]
Max T/C (Mus musculus [6]): 240
Max T/C (Mus musculus [7]): 240
Max T/C (Mus musculus [9]): 270
Max T/C (Mus musculus [10]): 190
Max T/C (Mus musculus [2]): 270
Max T/C (Mus musculus [11]): 190
